Data taken from ChEMBL document CHEMBL3507680, “University of Dundee, Gates Library screen for HepG2 cell viability”.

experiment: Human HepG2 cell viability assay in 384 well format; assay type: toxicity, cell-based; parameters: dose 125 nL, time 70.5 hour; concentration not given beside the values; conditions: HepG2 cells, read-out: Inhibition

Compared with `CN1CCCC(c2nnc3n2CCN(S(=O)(=O)c2ccccc2Cl)C3)C1` (configuration not stated), `NC(=O)C1CCCN(S(=O)(=O)c2cnn(-c3ccccc3)c2)C1` (configuration not stated) is higher in cytotoxicity at 70.5 h: -9.93% for the first, -1.76% for the second.

First: CC(=O)N1CCC2(CCN(C(=O)c3ccc(F)c(C(F)(F)F)c3)C2)C1 (configuration not stated)
Second: CN(C)CC(=O)N1CCC2(CC1)COC(COc1ccccn1)C2 (configuration not stated)
The cytotoxicity at 70.5 h of the first is lower: -12.8% for the first, -7.86% for the second.

First: COc1ccc(C(=O)C2CCCN(c3cc(C#N)ccn3)C2)cc1F (configuration not stated)
Second: CCOCCN1CCN(c2ccc(C#N)cn2)CC1CC (configuration not stated)
The cytotoxicity at 70.5 h of the first is lower: -6.04% for the first, 1.12% for the second.

First: COCCN1CCC(CNC(=O)C2(c3cccc(C)c3)CC2)CC1
Second: CC(O)CN1CCC(CNCc2ccccc2Cl)CC1 (configuration not stated)
The cytotoxicity at 70.5 h of the first is higher: -4.42% for the first, -7.56% for the second.

First: c1ccc(CN2CCOC3(COCCN(c4ncccn4)C3)C2)nc1 (configuration not stated)
Second: CCN1CCCC12CCCN(c1ncccn1)C2 (configuration not stated)
The cytotoxicity at 70.5 h of the first is lower: -12.3% for the first, -9.5% for the second.

Going from `CC(c1nc(C2CC2)no1)N1CCN(Cc2cccnc2)CC1` (configuration not stated) to `c1coc(-c2noc(CN3CCc4c(ncn4C4CC4)C3)n2)c1`, the cytotoxicity at 70.5 h rises from -6.99% to 1.12%.

First: Cc1ccccc1Oc1ncccc1CNC(=O)Cn1cccnc1=O
Second: COc1cccc2c(=O)n(Cc3cccnc3)cnc12
The cytotoxicity at 70.5 h of the first is higher: 3.17% for the first, -6.26% for the second.

Compared with `O=C1C(NCc2cccc(O)c2)CCN1Cc1ccccc1` (configuration not stated), `Oc1cccc(CNCCC2CCCO2)c1` (configuration not stated) is lower in cytotoxicity at 70.5 h: -0.773% for the first, -12.5% for the second.

First: CC(C)(O)CCc1ccc(C(=O)N2CCN(CC3CCCC3)CC2)cc1
Second: O=C(C1CC1)N1CCC(O)(CN2CCN(c3ccccc3)CC2)C1 (configuration not stated)
The cytotoxicity at 70.5 h of the first is higher: 4.24% for the first, -4.63% for the second.

Going from `NC(=O)CN1CCOCC(Cc2ccccc2Cl)C1` (configuration not stated) to `O=C(NCCN1CCNCC1)c1nc2ccccc2c(=O)[nH]1`, the cytotoxicity at 70.5 h rises from -3.99% to -2.57%.

Compared with `Cc1nc(C)c(S(=O)(=O)NC(=O)c2ccsc2)s1`, `CCc1nc(CSCc2csc(CS(C)(=O)=O)n2)cs1` is higher in cytotoxicity at 70.5 h: -7% for the first, -1.17% for the second.

Going from `COCC1CN(CCc2ccc(OC)c(OC)c2)Cc2c1cnn2C` (configuration not stated) to `COc1ccc2c(c1)CN(Cc1nc3c(cnn3C)c(=O)[nH]1)CC2`, the cytotoxicity at 70.5 h rises from -8.2% to 45.5%.

Going from `Cc1noc([C@@H]2C[C@H]3OCC[C@H]3N(S(=O)(=O)N(C)C)C2)n1` to `Cc1noc([C@H]2C[C@H]3OCC[C@H]3N(Cc3ccncc3)C2)n1`, the cytotoxicity at 70.5 h falls from -0.423% to -7.52%.

Going from `COCC(=O)N1CCCC1c1ccnc(Nc2cnccn2)n1` (configuration not stated) to `CN(C)c1ccc(NC(=O)N2CCCC2c2ccsc2)cn1` (configuration not stated), the cytotoxicity at 70.5 h falls from -7.05% to -12.1%.

Going from `CS(=O)(=O)NCC1CCCN(C(=O)Nc2cccnc2N2CCCC2)C1` (configuration not stated) to `O=C(O)[C@@H]1CN(C(=O)NCC2CCCCC2)C[C@H]1c1ccccn1`, the cytotoxicity at 70.5 h falls from -0.725% to -2.76%.

Compared with `CC(=O)N1CCN(C(=O)Cc2cnc(-c3c(Cl)cccc3Cl)s2)CC1`, `COC(=O)N1CCCN(C(=O)c2cccc3cccnc23)CC1` is higher in cytotoxicity at 70.5 h: -13.6% for the first, -7.61% for the second.

Going from `COCc1cc(CNC(=O)c2c(C)c(C)cc(C)c2C)n[nH]1` to `COc1c(C2CCCN2C(=O)c2csc(C(C)C)n2)c(C)nn1C` (configuration not stated), the cytotoxicity at 70.5 h falls from -4.32% to -12.3%.

Going from `Cc1ccsc1CNCC1CCCN1c1cccnn1` (configuration not stated) to `O=C(O)c1ccc(CNC(=O)C2CCN(Cc3ccco3)CC2)s1`, the cytotoxicity at 70.5 h falls from 19.9% to -3.49%.

Going from `O=C1CC(c2ccc(C(=O)O)cc2)c2ncn(-c3ccccc3F)c2N1` (configuration not stated) to `O=C(NC1CC2(CCN(CCO)CC2)c2ccccc21)c1ccncc1` (configuration not stated), the cytotoxicity at 70.5 h rises from -11.1% to -5.59%.

First: CS(=O)(=O)NCCC(=O)NC1CCc2nccn2C1 (configuration not stated)
Second: COCc1ncn2c1CN(C(=O)C1CC=CC1)CC2
The cytotoxicity at 70.5 h of the first is higher: -4.75% for the first, -8.8% for the second.

First: Cc1nc(NCC2CC2)nc2c1COCC21CCNC1 (configuration not stated)
Second: Cc1cc(C(=O)N2CCc3nc(N4CCOCC4)nc(C)c3C2)c(C)o1
The cytotoxicity at 70.5 h of the first is higher: 5.46% for the first, -6.78% for the second.

Compared with `CC(C)NC(=O)NC[C@H]1OC[C@@H](NCc2ccccc2F)[C@@H]1O`, `CCc1noc(C(C)N(C)CC(=O)Nc2ccccc2Cl)n1` (configuration not stated) is lower in cytotoxicity at 70.5 h: -4.73% for the first, -89.8% for the second.

Going from `CCCc1cnc(C)nc1NC(C)Cc1cnccn1` (configuration not stated) to `CC(=O)N1CCCN(c2nccc(-c3c(C)nn(C)c3C)n2)CC1`, the cytotoxicity at 70.5 h rises from -5.97% to -3.87%.

Going from `CC(NC1(CNC(=O)CC(C)(C)C)CCOCC1)c1ccccc1` (configuration not stated) to `Cc1occc1C(=O)N1CC[C@@H](N2CCOCC2)[C@@H]1Cc1ccccc1`, the cytotoxicity at 70.5 h falls from -7.83% to -7.85%.

Compared with `CN(C)c1ccccc1C(=O)N1C[C@@H](CN2CCC(O)CC2)[C@@H](CO)C1`, `NC(=O)C1CCN(C(=O)CSC2CCCc3ccccc32)CC1` (configuration not stated) is higher in cytotoxicity at 70.5 h: 1.37% for the first, 1.96% for the second.

Going from `CN(C)S(=O)(=O)N1C[C@@H]2CC[C@H](C1)N(C/C=C/c1ccc(F)cc1)C2` to `O=S(=O)(C1CC1)N1CCO[C@@H]2CN(Cc3cccs3)C[C@@H]2C1`, the cytotoxicity at 70.5 h falls from 0.852% to -5.47%.

Compared with `COc1ccc(Cl)cc1NC(=O)N1CCc2nc(NC(C)=O)sc2C1`, `O=C(C[S+]([O-])c1ccc(F)c(F)c1)NCc1cc(F)cc(F)c1` (configuration not stated) is higher in cytotoxicity at 70.5 h: -5.4% for the first, -2.62% for the second.

Going from `O=C(c1cc(C2CCCCC2)no1)N1C[C@H]2C[C@H](O)C[C@H]2C1` to `Cc1noc(CCCC(=O)N(CC2CCOC2)C2CC2)n1` (configuration not stated), the cytotoxicity at 70.5 h falls from -4.06% to -11%.

`OC(CN(Cc1ccccc1)Cc1ccon1)c1cccs1` (configuration not stated) showed a cytotoxicity at 70.5 h of -5.21%.
